According to patent publication US20140065223A1, “PERFLUORINATED COMPOUNDS FOR THE NON-VIRAL TRANSFER OF NUCLEIC ACIDS” (priority 2011, published 2014):

Tested on: Cells of line HEK 293
Assay: Detection of absorption into the cell: transfection of HEK 293 cells, microscopy / confocal microscopy of rhodamine coloration
Format: cell-based
Method: To follow the path of the perfluorinated nucleic acids into the cell, the following construct with rhodamine linking was used: The compound was first dissolved in tetrahydrofuran (THF), and this solution was subsequently titrated in isopropanol. […] Cells of line HEK 293 were used as cell culture Transfection was performed one day after cell enlargement. As a control, a transfection was performed with pure rhodamine particles of equivalent rhodamine concentration to test the perfluorinated nucleic acids. […] One explanation of this is possible that the rhodamine is bound to the PFC particle in the perfluorinated nucleic acids and sinks to the bottom as a small particle, whereas the dye is completely dissolved in the medium with pure rhodamine. […] The endosomes and lysosomes filled with perfluorinated nucleic acids were detected throughout the cell cytoplasm.

rhodamine [pure rhodamine]
coloration of the cells (20 minutes after transfection): no defined coloration could be seen
coloration of the cells (24 hours after transfection): substantially weaker and diffuse in comparison on the cell surface instead of in the cytoplasm and granular
